Test results: patent US20240317741A1, “NAPHTHYRIDINE DERIVATIVE AS ATR INHIBITOR AND METHOD FOR PREPARING SAME” (WIGEN BIOMEDICINE TECHNOLOGY (SHANGHAI) CO., LTD., priority 2021, published 2024)

Experiments:
[1] = Liver microsomal stability (mouse); type: in vitro ADME; conditions: mouse liver microsomes, 1 μM compound, NADPH regeneration system, 37° C.; read-out: T1/2 (min) Mouse
Experimental: (§1) After 1 μM compound was incubated with 500 µg/mL of human or mouse liver microsomes and a NADPH regeneration system at 37° C. for different times, respectively, LC-MS-MS was used to analyze the remaining amount of the compound and calculate T1/2.

[2] = In vivo pharmacokinetic experiment in mice; set-up: species or system CD-1 female mice; conditions: female, CD-1, mouse, plasma
Experimental: CD-1 female mice aged 7 to 10 weeks were intravenously administered and orally administered at a dose of 2 mg/kg and 10 mg/kg, respectively. The mice were fasted for at least 12 h before the administration and given food 4 h after the administration, and they were given ad libitum access to water during the experiment.
On the day of the experiment, animals in the intravenous group were administered the corresponding compound by single injection via the tail vein at an administration volume of 10 mL/kg, and animals in the oral group were administered the corresponding compound by single intragastric injection at an administration volume of 10 mL/kg. The animals were weighed before administration, and the administration volume was calculated according to the body weight. The sample collection time was 0.083 h, 0.167 h, 0.5 h, 1 h, 2 h, 4 h, 8 h and 24 h. About 200 μL of whole blood was collected through the orbital venous plexus at each time point and used to prepare plasma for concentration determination by high performance liquid chromatography-tandem mass spectrometry (LC-MS/MS). The plasma concentrations were processed using a non-compartmental model of Winnolin pharmacokinetic software, and the pharmacokinetic parameters were calculated using a linear-log trapezoidal method.

[3] = Pharmacokinetic evaluation in rats; type: in vivo, SD female rats; conditions: female, SD, rat, plasma
Experimental: SPF-grade SD female rats aged 7 to 10 weeks were intravenously administered and orally administered at a dose of 1 mg/kg and 10 mg/kg, respectively. The rats were fasted for at least 12 h before the administration and given food 4 h after the administration, and they were given ad libitum access to water during the experiment.
On the day of the experiment, animals in the intravenous group were administered the corresponding compound by single injection via the tail vein at an administration volume of 2 mL/kg, and animals in the oral group were administered the corresponding compound by single intragastric injection at an administration volume of 10 mL/kg. The animals were weighed before administration, and the administration volume was calculated according to the body weight. The sample collection time was 0.083 h (only intravenous group), 0.125 h (only oral group), 0.25 h, 0.5 h, 1 h, 2 h, 4 h, 6 h, 8 h and 24 h. About 200 μL of whole blood (EDTA-K2 anticoagulated) was collected via the jugular vein or other suitable vein at each time point and used to prepare plasma for concentration determination by high performance liquid chromatography-tandem mass spectrometry (LC-MS/MS). All animals were suffocated by CO2 after the PK samples were collected at the last time point. The plasma concentrations were processed using a non-compartmental model of Winnolin™ version 8.2 (Pharsight, mountain View, CA) pharmacokinetic software, and the pharmacokinetic parameters were calculated using a linear-log trapezoidal method.

[4] = Liver microsomal stability (human); type: in vitro ADME; conditions: human liver microsomes, 1 μM compound, NADPH regeneration system, 37° C.; read-out: T1/2 (min) Human
Experimental: as §1

MIA PaCa-2 cells [5] = assay: In-vitro anti-proliferative activity in combination with gemcitabine against MIA PaCa-2 cells; type: cell-based; conditions: in combination with 20 nM gemcitabine, 72 h after dosing
Experimental: (§2) MIA PaCa-2 cells were seeded on a 384-well plate at 3000 cells/well, and 20 nM gemcitabine was added. After overnight adherence culture, DMSO or the compounds serially diluted 1:5 from 100 nM were added. […] The inhibition percentage of viable cells by the compounds was calculated by comparing with the DMSO group, and the IC50 value was calculated.

[6] = system: Human colon cancer LOVO cells; assay: In vivo efficacy in LoVo model; set-up: species or system nude mouse; conditions: LoVo model in nude mice, 20 mpk BID PO, days 1-3, 8-10, 15-17 and day 21
Experimental: After being subcultured, the cells were collected when they reached the desired amount. 1×10^7 LOVO cells were injected into the left dorsal side of each nude mouse, and the animals were randomly grouped for administration after tumors grew to 100-200 mm^3. The groups were as follows: a solvent control group of 8 mice and a compound group of 8 mice. The compounds were administered orally 3 days a week and interrupted for 4 days, for 21 consecutive days. The vehicle was a 0.5% MC suspension containing 1% tween-80. On Tuesday and Thursday each week, tumor volumes and body weight of the mice were measured, and the nude mice were sacrificed on day 21 after the administration. […] The toxicity of the compounds was evaluated according to the body weight of the mice.

[7] = system: Human colon cancer HT29 cells; assay: In vivo efficacy in HT-29 model, alone and with gemcitabine; set-up: species or system nude mouse; conditions: HT-29 model in nude mice, day 21
Experimental: After being subcultured, the cells were collected when they reached the desired amount. 1×10^7 HT29 cells were injected into the left dorsal side of each nude mouse, and the animals were randomly grouped for administration after tumors grew to 100-200 mm^3. The groups were as follows: a solvent control group of 6 mice, a single drug group of 15 mg/kg gemcitabine (GMC), and a combination group of 15 mg/kg gemcitabine and a compound. Gemcitabine was administered intraperitoneally with PBS as a vehicle once a week. The compounds were administered 3 days a week and interrupted for 4 days (3 on/4 off), for 21 consecutive days, and the vehicle was a 0.5% MC suspension containing 1% tween-80. On Tuesday and Thursday each week, tumor volumes and body weight of the mice were measured, and the nude mice were sacrificed on day 21 after the administration. […] The toxicity of the compounds was evaluated according to the body weight of the mice.

MIA PaCa-2 cells [8] = assay: In-vitro anti-proliferative activity against MIA PaCa-2 cells; type: cell-based; conditions: Homo sapiens, 72 h after dosing, intracellular ATP content
Experimental: as §2, with “cells/well.” for “cells/well, and 20 nM gemcitabine was added.”, “5 μM” for “100 nM”

[9] = Oral administration (10 mg/kg), read-out: Cmax
[10] = Oral administration (10 mg/kg), read-out: Tmax

half-life at 1 μM [1]: 8.68 min | AUC(0-t) ([2]; Oral administration (10 mg/kg)): 3300 ng·h/mL | bioavailability ([2]; Oral administration (10 mg/kg)): 34.5% | half-life ([2]; Oral administration (10 mg/kg)): 46.8 min | Cmax [2, 9]: 1720 ng/mL | Tmax [2, 10]: 30 min | AUC(0-t) ([2]; iv, Injection (2 mg/kg)): 1920 ng·h/mL | clearance ([2]; iv, Injection (2 mg/kg)): 17.4 mL/min/kg | half-life ([2]; iv, Injection (2 mg/kg)): 40.2 min | Vd ([2]; iv, Injection (2 mg/kg), read-out: Vdss): 0.58 L/kg | AUC(0-t) ([3]; Oral administration (10 mg/kg)): 8030 ng·h/mL | bioavailability ([3]; Oral administration (10 mg/kg)): 120% | half-life ([3]; Oral administration (10 mg/kg)): 171 min | Cmax [3, 9]: 1550 ng/mL | Tmax [3, 10]: 60 min | AUC(0-t) ([3]; iv, Injection (1 mg/kg)): 669 ng·h/mL | clearance ([3]; iv, Injection (1 mg/kg)): 24.9 mL/min/kg | half-life ([3]; iv, Injection (1 mg/kg)): 103 min | Vd ([3]; iv, Injection (1 mg/kg), read-out: Vdss): 3 L/kg | half-life at 1 μM [4]: 51.4 min | IC50 (MIA PaCa-2 cells [5]): 1.5 nM | IC50 (MIA PaCa-2 cells [8]): < 1000 nM
Structure (SMILES): C[C@@H]1COCCN1c1cc(C2(C#N)CCOCC2)c2ccnc(-c3ccn[nH]3)c2n1 [Compound 29]
TGI(%) [6]: 83.2% | TGI(%) ([7]; compound 20 mpk BID PO 3 on/4 off + GMC 15 mpk QW IP): 85.3% | TGI(%) ([7]; single agent, 20 mpk BID PO, 3on/4off): 49.9%
